Patent publication US9097673B2, “Processes and kits for determining multi-drug resistance of cells” (ENZO LIFE SCIENCES, INC., priority 2010, dated 2015)
Several values for one entry are separate records, joined by “and”; a condition that tells them apart may be missing. Equal entries are not always repeated. Where two headings read alike, the source gives them in different places.

Assays:
[1] = tested on: A549 cell line; assay: Dye uptake flow cytometry MDR assay; assay type: cell-based, human
[2] = tested on: CHO K1 cell line; assay: Dye uptake flow cytometry MDR assay; assay type: cell-based, hamster;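 also: flow cytometry of dye-loaded cells, Kolmogorov-Smirnov D value (0 to 1.0) comparing fluorescence with versus without inhibitor, made negative when the uninhibited control was brighter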
[3] = tested on: HeLa cell line; assay: Dye uptake flow cytometry MDR assay; assay type: cell-based, human
[4] = tested on: U-2 OS cells; assay: Multiplexed MDR detection by flow cytometry (dye uptake, with PI); assay type: cell-based, human; conditions: for F8 + PI, MAF: Fluo-8 AM + PI; for F8, MAF: Fluo-8 AM probe alone; for R4 + PI compens, MAF / R4 + PI, MAF: Rhod-4 AM + PI; for R4 + PI compens, MAF: compensated; for R4 + PI, MAF: uncompensated; for R4, MAF: Rhod-4 AM probe alone;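 as to all read-outs here: MAF computed as 100 × (MFI with inhibitor − MFI without) / MFI with inhibitor, after 5 min inhibitor pre-incubation then 30 min dye loading at 37 °C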
[5] = tested on: U-2 OS cells expressing GFP; assay: as above; assay type: cell-based, human; conditions: U-2 OS GFP; for R4 + PI compens, MAF / R4 + PI, MAF: Rhod-4 AM + PI; for R4 + PI compens, MAF: compensated; for R4 + PI, MAF: uncompensated; for R4, MAF: Rhod-4 AM probe alone
[6] = A549, dye uptake, average of three representative experiments (Table 6)
[7] = CHO K1, dual probes Rhod-4 AM (FL2) + CMFDA (FL1)
[8] = CHO K1, dye uptake, average of three representative experiments (Table 6)
[9] = CHO K1, triple probes CMFDA (FL1) + Rhod-4 AM (FL2) + Pheophorbide A (FL3)
[10] = HeLa, dye uptake, average of three representative experiments (Table 6)
[11] = CHO K1, dual probes Rhod-4 AM (FL2) + DiOC2(3) (FL1)
[12] = CHO K1, triple probes DiOC2(3) (FL1) + Rhod-4 AM (FL2) + Pheophorbide A (FL3)
[13] = A549, dye uptake, average of three independent experiments (Table 10)
[14] = CHO K1, dye uptake, average of three independent experiments (Table 10)
[15] = CHO K1, Fluo-8 AM + propidium iodide, uncompensated data
[16] = CHO K1, Fluo-8 AM probe alone, uncompensated data
[17] = CHO K1, Rhod-4 AM + propidium iodide, compensated data
[18] = CHO K1, Rhod-4 AM + propidium iodide, uncompensated data
[19] = CHO K1, Rhod-4 AM probe alone, uncompensated data
[20] = CHO K1, dual probes Fluo-8 AM (FL1) + Pheophorbide A (FL3)
[21] = CHO K1, dual probes Rhod-4 AM (FL2) + Pheophorbide A (FL3)

CC(=O)Oc1ccc2c(c1)Oc1cc(OC(C)=O)ccc1C21OC(=O)c2cc(CCl)ccc21 [CMFDA, chloromethylfluorescein diacetate]
D-value, Fumitremorgan C [1, 6]: 0.21
D-value, Probenecid [1, 6]: 0.29
D-value, Verapamil [1, 6]: 0.04
D-values Post Inhibitor Treatment (compared to uninhibited cells), CsA [2, 7]: 0.49
D-values Post Inhibitor Treatment (compared to uninhibited cells), FTC [2, 7]: 0.06
D-values Post Inhibitor Treatment (compared to uninhibited cells), MK-571 [2, 7]: 0.91
D-values Post Inhibitor Treatment (compared to uninhibited cells), Verapamil [2, 7]: 0.1
D-value, Fumitremorgan C [2, 8]: 0.09
D-value, Probenecid [2, 8]: 0.7
D-value, Verapamil [2, 8]: 0.19
D-values Post Inhibitor Treatment (compared to uninhibited cells), CsA [2, 9]: 0.47
D-values Post Inhibitor Treatment (compared to uninhibited cells), FTC [2, 9]: 0.14
D-values Post Inhibitor Treatment (compared to uninhibited cells), MK-571 [2, 9]: 0.89
D-values Post Inhibitor Treatment (compared to uninhibited cells), Verapamil [2, 9]: 0.10
D-value, Fumitremorgan C [3, 10]: 0.12
D-value, Probenecid [3, 10]: 0.03
D-value, Verapamil [3, 10]: 0

CCN1C(=CC=Cc2oc3ccccc3[n+]2CC)Oc2ccccc21.[I-] [DiOC2(3), 3,3′-diethyloxacarbocyanine iodide]
D-value, Fumitremorgan C [1]: 0.03
D-value, Probenecid [1, 6]: 0
D-value, Verapamil [1, 6]: 0.07
D-value, Fumitremorgan C [2]: 0
D-values Post Inhibitor Treatment (compared to uninhibited cells), CsA [2, 11]: 0.94
D-values Post Inhibitor Treatment (compared to uninhibited cells), FTC [2, 11]: 0.16
D-values Post Inhibitor Treatment (compared to uninhibited cells), MK-571 [2, 11]: 0.13
D-values Post Inhibitor Treatment (compared to uninhibited cells), Verapamil [2, 11]: 0.96
D-value, Probenecid [2, 8]: 0.01
D-value, Verapamil [2, 8]: 0.96
D-values Post Inhibitor Treatment (compared to uninhibited cells), CsA [2, 12]: 0.98
D-values Post Inhibitor Treatment (compared to uninhibited cells), FTC [2, 12]: 0.11
D-values Post Inhibitor Treatment (compared to uninhibited cells), MK-571 [2, 12]: 0.13
D-values Post Inhibitor Treatment (compared to uninhibited cells), Verapamil [2, 12]: 0.98
D-value, Fumitremorgan C [3]: 0.07
D-value, Probenecid [3, 10]: 0.06
D-value, Verapamil [3, 10]: 0

COc1cccc2c1C(=O)c1c(O)c3c(c(O)c1C2=O)C[C@@](O)(C(=O)CO)C[C@@H]3O[C@H]1C[C@H](N)[C@H](O)[C@H](C)O1 [Doxorubicin, doxorubicin]
D-value, Cyclosporine A [1, 13]: 0.14
D-value, FTC [1, 13]: 0.18
D-value, MK-571 [1, 13]: 0.24
D-value, Novobiocin [1, 13]: 0.28
D-value, Verapamil [1, 13]: 0.06
D-value, Cyclosporine A [2, 14]: 0.42
D-value, FTC [2, 14]: 0.22
D-value, MK-571 [2, 14]: 0.35
D-value, Novobiocin [2, 14]: 0.32
D-value, Verapamil [2, 14]: 0.27

COc1ccc2c3c([nH]c2c1)[C@H](C=C(C)C)N1C(=O)[C@@H]2CCCN2C(=O)[C@@H]1C3 [FTC, fumitremorgin C]
F8 + PI, MAF [4]: −6.3
F8, MAF [4]: 5.0
R4 + PI compens, MAF [4]: 12.6
R4 + PI, MAF [4]: −9.3
R4, MAF [4]: 9.9
R4 + PI compens, MAF [5]: 6.2
R4 + PI, MAF [5]: 25.7
R4, MAF [5]: 15.0

CN(C)C(=O)CCSC(SCCC(=O)O)c1cccc(/C=C/c2ccc3ccc(Cl)cc3n2)c1 (stereo not shown) [MK-571]
F8 + PI, MAF [4]: 52.9
F8, MAF [4]: 65.4
R4 + PI compens, MAF [4]: 54.5
R4 + PI, MAF [4]: 49.7
R4, MAF [4]: 62.8
F8 + PI, D-values [2, 15]: 0.92
Fluo-8 ™, D [2, 16]: 0.89
R4 + PI, D-values [2, 17]: 0.94
R4 + PI, D-values [2, 18]: 0.95
Rhod4 ™ (D-values) [2, 19]: .94
R4 + PI compens, MAF [5]: 43.3
R4 + PI, MAF [5]: 51.9
R4, MAF [5]: 49.6

O=C1c2c(O)ccc(O)c2C(=O)c2c(NCCNCCO)ccc(NCCNCCO)c21 [Mitoxantrone, mitoxantrone]
D-value, Cyclosporine A [1, 13]: 0.27
D-value, FTC [1, 13]: 0.28
D-value, MK-571 [1, 13]: 0.37
D-value, Novobiocin [1, 13]: 0.28
D-value, Verapamil [1, 13]: 0.12
D-value, Cyclosporine A [2, 14]: 0.34
D-value, FTC [2, 14]: 0.21
D-value, MK-571 [2, 14]: 0.18
D-value, Novobiocin [2, 14]: 0.22
D-value, Verapamil [2, 14]: 0.42

CO[C@@H]1[C@@H](OC(N)=O)[C@@H](O)[C@H](Oc2ccc3c(O)c(NC(=O)c4ccc(O)c(CC=C(C)C)c4)c(=O)oc3c2C)OC1(C)C [Novobiocin, novobiocin]
F8 + PI, MAF [4]: 12.3
F8, MAF [4]: 17.9
R4 + PI compens, MAF [4]: 15.1
R4 + PI, MAF [4]: 10.7
R4, MAF [4]: 18.7
F8 + PI, D-values [2, 15]: 0.61
Fluo-8 ™, D [2, 16]: 0.54
R4 + PI, D-values [2, 17]: 0.66
R4 + PI, D-values [2, 18]: 0.7
Rhod4 ™ (D-values) [2, 19]: .64
R4 + PI compens, MAF [5]: 2.8
R4 + PI, MAF [5]: 27.9
R4, MAF [5]: 17.9

C=Cc1c(C)c2cc3nc(c4c5[nH]c(cc6nc(cc1[nH]2)C(C)=C6CC)c(C)c5C(=O)[C@@H]4C(=O)OC)[C@@H](CCC(=O)O)[C@@H]3C [Pheophorbide A, pheophorbide A]
D-value, Fumitremorgan C [1, 6]: 0.35
D-value, Probenecid [1, 6]: 0.16
D-value, Verapamil [1, 6]: 0.16
D-values Post Inhibitor Treatment (compared to uninhibited cells), CsA [2, 20]: 0.25
D-values Post Inhibitor Treatment (compared to uninhibited cells), FTC [2, 20]: 0.33
D-values Post Inhibitor Treatment (compared to uninhibited cells), MK-571 [2, 20]: 0.15
D-values Post Inhibitor Treatment (compared to uninhibited cells), Verapamil [2, 20]: 0.14
D-values Post Inhibitor Treatment (compared to uninhibited cells), CsA [2, 21]: 0.25
D-values Post Inhibitor Treatment (compared to uninhibited cells), FTC [2, 21]: 0.34
D-values Post Inhibitor Treatment (compared to uninhibited cells), MK-571 [2, 21]: 0.14
D-values Post Inhibitor Treatment (compared to uninhibited cells), Verapamil [2, 21]: 0.11
D-value, Fumitremorgan C [2, 8]: 0.25
D-value, Probenecid [2, 8]: 0.03
D-value, Verapamil [2, 8]: 0.02
D-values Post Inhibitor Treatment (compared to uninhibited cells), CsA [2, 9]: 0.20
D-values Post Inhibitor Treatment (compared to uninhibited cells), FTC [2, 9]: 0.27
D-values Post Inhibitor Treatment (compared to uninhibited cells), MK-571 [2, 9]: 0.09
D-values Post Inhibitor Treatment (compared to uninhibited cells), Verapamil [2, 9]: 0.18
D-values Post Inhibitor Treatment (compared to uninhibited cells), CsA [2, 12]: 0.4
D-values Post Inhibitor Treatment (compared to uninhibited cells), FTC [2, 12]: 0.41
D-values Post Inhibitor Treatment (compared to uninhibited cells), MK-571 [2, 12]: 0.13
D-values Post Inhibitor Treatment (compared to uninhibited cells), Verapamil [2, 12]: 0.17
D-value, Fumitremorgan C [3, 10]: 0
D-value, Probenecid [3, 10]: 0
D-value, Verapamil [3, 10]: 0

CCCN(CCC)S(=O)(=O)c1ccc(C(=O)O)cc1 [Probenecid, probenecid]
F8 + PI, MAF [4]: 23.1
F8, MAF [4]: 57.5
R4 + PI compens, MAF [4]: 42.4
R4 + PI, MAF [4]: 24.0
R4, MAF [4]: 41.2
R4 + PI compens, MAF [5]: 38.5
R4 + PI, MAF [5]: 47.7
R4, MAF [5]: 34.0

COc1ccc(CCN(C)CCCC(C#N)(c2ccc(OC)c(OC)c2)C(C)C)cc1OC (stereo not shown) [Verapamil, verapamil]
F8 + PI, MAF [4]: 33.0
F8, MAF [4]: 63.4
R4 + PI compens, MAF [4]: 54.1
R4 + PI, MAF [4]: 35.8
R4, MAF [4]: 42.5
F8 + PI, D-values [2]: 0.94
Fluo-8 ™, D [2]: 0.92
R4 + PI, D-values [2]: 0.96 and 0.95
Rhod4 ™ (D-values) [2]: 0.94
R4 + PI compens, MAF [5]: 38.0
R4 + PI, MAF [5]: 41.3
R4, MAF [5]: 30.4
